From patent publication US9682082B2, “Combinations of AKT and MEK inhibitor compounds, and methods of use” (GENENTECH, INC., priority 2011, dated 2017) come the findings set out here.

The test system of assay [1] is MALME3M cells. The assay is described as follows: Cell viability assay (CellTiter-Glo), MALME3M. Type of assay: cell-based, human. The settings on record: MALME3M B-RAF V600E metastatic melanoma cell line. On the procedure: (§1) Cells were plated in black, clear-bottomed 384-well plates (Catalog 353962; Becton Dickinson; Franklin Lakes, N.J.) at a density of 1500 cells/well and incubated overnight to 1.5 days at 37° C., 5% CO2. Serial dilutions of GDC-0068, GDC-0973, or both in combination were then added to the cells and incubated for another 96 hours. Cell viability was determined by measuring the cellular adenosine triphosphate (ATP) levels as described in the manufacturer's protocol (CellTiter-Glo Luminescent Cell Viability Assay kit; Catalog G7573; Promega, Madison, Wis.). Luminescence signal was recorded on an EnVision 2101 Multilabel Reader (PerkinElmer; Waltham, Mass.).
(§2) Percentage inhibition was calculated by dividing the relative light unit (RLU) of cells exposed to the GDC-0068 and GCD-0973 combination to the RLU of cells exposed to DMSO and subtracting it from 1, as expressed below: % inhibition=1−(RLUcombination/RLUDMSO)
(§3) BLISS analysis compared the expected % inhibition (E=EGDC-0068+EGDC-0973−EGDC-0068×EGDC-0973) with the experimentally observed % inhibition, EOBS. The BLISS score is the difference (ΔE=EOBS−E) between the expected % inhibition, E, and the experimentally observed inhibition, EOBS.
(In ATP-based viability assays light output follows the ATP content of the culture.)

In assay [2] the test system is A2058 (PTEN null/Braf mutant) melanoma model. The assay is described as follows: A2058 melanoma xenograft model, tumor growth inhibition. In kind it is in vivo. Here is the method: Methods of measuring TGI are known in the art. In one example method, average tumor volumes are determined and compared from the patient before and after treatment. Tumor volumes can be measured in two dimensions (length and width) using any method in the art, for example UltraCal IV calipers (Fred V. Fowler Company) or by PET (positron emission tomography), or by some other method. The formula tumor volume (mm^3)=(length×width^2)×0.5 can be used. Measuring tumor volumes over multiple time periods can be done using a mixed-modeling Linear Mixed Effects (LME) approach (Pinheiro et al. 2009). This approach can address both repeated measurements (and multiple patients). Cubic regression splines can be used to fit a non-linear profile to the time courses of tumor volume at each dose level. These non-linear profiles can then be related to dose within the mixed model. Tumor growth inhibition as a percent of vehicle can be calculated as a percent area under the fitted curve (AUC) per day in relation to the vehicle, using the following formula:
[formula] Using this formula, a TGI value of 100% indicates tumor stasis, greater than about 1% but less than about 100% indicates tumor growth inhibition, and greater than about 100% indicates tumor regression. Preparation of a Compound of Formula I
The efficacy of representative combinations of the invention were measured in vivo by implanting allografts or xenografts of cancer cells in rodents and treating the tumor-bearing animals with the combinations. Variable results are to be expected depending on the cell line, the presence or absence of certain mutations in the tumor cells, the sequence of administration the compounds, dosing regimen, and other factors. Subject mice were treated with drug(s) or control (Vehicle) and monitored over several weeks or more to measure the time to tumor doubling, log cell kill, and tumor inhibition.

Assay [3] has as its system MALME3 cells. The assay can be described thus: Cell viability assay (CellTiter-Glo), MALME3. In kind it is cell-based, human. Conditions: MALME3 normal skin fibroblasts. On the procedure: as §1, §2, §3

For `CC(C)NC[C@@H](C(=O)N1CCN(c2ncnc3c2[C@H](C)C[C@H]3O)CC1)c1ccc(Cl)cc1` [GDC-0068, (S)-2-(4-chlorophenyl)-1-(4-((5R,7R)-7-hydroxy-5-methyl-6,7-dihydro-5H-cyclopenta[d]pyrimidin-4-yl)piperazin-1-yl)-3-(isopropylamino)propan-1-one], the “single agent effect on cell viability” value in assay [1] was “lack of single agent activity”. Moreover, the “single agent tumor growth inhibition (TGI)” value in assay [2] (50 mg/kg of GDC-0068) was “No TGI”; in assay [2] (higher doses of GDC-0068 (75 and 100 mg/kg)), “Comparable single agent tumor growth inhibition (TGI)”.

For `O=C(c1ccc(F)c(F)c1Nc1ccc(I)cc1F)N1CC(O)([C@@H]2CCCCN2)C1` [GDC-0973, (S)-(3,4-difluoro-2-(2-fluoro-4-iodophenylamino)phenyl)(3-hydroxy-3-(piperidin-2-yl)azetidin-1-yl)methanone], the “single agent effect on cell viability” value in assay [1] is recorded as “sensitivity”; in assay [3], “resistant”. Moreover, the “single agent tumor growth inhibition (TGI)” value in assay [2] (all doses of GDC-0973) is on record as “Comparable single agent tumor growth inhibition (TGI)”.
